Laboratory results taken from patent US10800791B2, “Triazole ACC inhibitors and uses thereof” (Gilead Apollo, LLC, priority 2015, dated 2020).
Converted amounts (≈) assume the structure as drawn. Where two headings read alike, the source gives them in different places.

Key:
Botrtyis cinerea (Bc) = test: Growth inhibition assay of fungal pathogens, Bc; assay type: cell-based; details: 48 h
In short: (§1)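 Inhibition percentages reflect 48 h OD600 and visual scores relative to a 2% DMSO control. Test concentrations were 50, 10, 2 ppm or 2, 0.4, 0.08 ppm final, applied to spores in 17% V8 medium.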

C. albicans = test: Antifungal Activity Assay (broth microtiter MIC), C. albicans; assay type: cell-based, Candida albicans; details: Candida albicans, ATCC90028, 48 h
In short: (§2)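 MIC read by eye at 48 h, comparing challenged wells with the growth control. Yeasts grown overnight on Sabouraud dextrose agar at 35° C, suspended in RPMI 1640+MOPS and added at 2.5×10^3 CFU/mL final, following CLSI M27-A3.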

Septoria tritici (St) = test: Growth inhibition assay of fungal pathogens, St; assay type: cell-based; details: Zymoseptoria tritici, 48 h
In short: as §1

[1] = system: Fusarium moniliforme (Fm); test: Growth inhibition assay of fungal pathogens, Fm; assay type: cell-based; details: for IC90: Fusarium verticillioides, 48 h, read-out: Concentration at 90% Inhibition Fm
In short: as §1

C. parapsilosis = test: Antifungal Activity Assay (broth microtiter MIC), C. parapsilosis; assay type: cell-based, Candida parapsilosis; details: Lodderomyces parapsilosis, ATCC22019, 48 h
In short: as §2

Diplodia maydis (Dm) = test: Growth inhibition assay of fungal pathogens, Dm; assay type: cell-based; details: Stenocarpella maydis, 48 h
In short: as §1

C. krusei = test: Antifungal Activity Assay (broth microtiter MIC), C. krusei; assay type: cell-based, Candida krusei; details: Pichia kudriavzevii, ATCC6258, 48 h
In short: as §2

[2] = system: Fusarium virguliforme (Fv); test: Growth inhibition assay of fungal pathogens, Fv; assay type: cell-based; details: 48 h
In short: as §1

Rhizoctonia solani (Rs) = test: Growth inhibition assay of fungal pathogens, Rs; assay type: cell-based; details: 48 h
[3] = system: Collectotrichum graminicola (Cg); test: Growth inhibition assay of fungal pathogens, Cg; assay type: cell-based; details: 48 h
In short: as §1

[4] = Fusarium moniliforme, growth inhibition at 48 hours vs 2% DMSO control
[5] = Botrtyis cinerea, growth inhibition at 48 hours vs 2% DMSO control, read-out: Concentration at 90% Inhibition Bc
[6] = Botrtyis cinerea, growth inhibition vs 2% DMSO control at 48 hours, read-out: Concentration at 90% Inhibition Bc
[7] = Table 3a, ATCC 90028, 3 replicates, MIC recorded at 48 h, read-out: MIC, C. albicans ATCC 90028
[8] = Table 3b (additional results), ATCC 90028, 3 replicates, MIC recorded at 48 h, read-out: MIC, C. albicans ATCC 90028
[9] = Septoria tritici, growth inhibition at 48 hours vs 2% DMSO control, read-out: Concentration at 90% Inhibition St
[10] = Septoria tritici, growth inhibition vs 2% DMSO control at 48 hours, read-out: Concentration at 90% Inhibition St
[11] = Fusarium moniliforme, growth inhibition vs 2% DMSO control at 48 hours
[12] = Table 3a, ATCC 22019, 3 replicates, MIC recorded at 48 h, read-out: MIC, C. parapsilosis ATCC 22019
[13] = Table 3b (additional results), ATCC 22019, 3 replicates, MIC recorded at 48 h, read-out: MIC, C. parapsilosis ATCC 22019
[14] = Diplodia maydis, growth inhibition at 48 hours vs 2% DMSO control, read-out: Concentration at 90% Inhibition Dm
[15] = Diplodia maydis, growth inhibition vs 2% DMSO control at 48 hours, read-out: Concentration at 90% Inhibition Dm
[16] = Table 3a, ATCC 6258, 3 replicates, MIC recorded at 48 h, read-out: MIC, C. krusei ATCC 6258
[17] = Table 3b (additional results), ATCC 6258, 3 replicates, MIC recorded at 48 h, read-out: MIC, C. krusei ATCC 6258
[18] = growth inhibition at 48 hours vs 2% DMSO control, read-out: Concentration at 90% Inhibition Fv
[19] = growth inhibition vs 2% DMSO control at 48 hours, read-out: Concentration at 90% Inhibition Fv
[20] = mycelial plugs, growth inhibition at 48 hours vs 2% DMSO control, read-out: Concentration at 90% Inhibition Rs
[21] = mycelial plugs, growth inhibition vs 2% DMSO control at 48 hours, read-out: Concentration at 90% Inhibition Rs
[22] = Collectotrichum graminicola, growth inhibition at 48 hours vs 2% DMSO control, read-out: Concentration at 90% Inhibition Cg
[23] = Collectotrichum graminicola, growth inhibition vs 2% DMSO control at 48 hours, read-out: Concentration at 90% Inhibition Cg

SMILES	IC90 (Botrtyis cinerea (Bc); [5]) [µg/mL]	IC90 (Botrtyis cinerea (Bc); [6]) [µg/mL]	MIC (C. albicans; [7]) [µg/mL]	MIC (C. albicans; [8]) [µg/mL]	IC90 (Septoria tritici (St); [9]) [µg/mL]	IC90 (Septoria tritici (St); [10]) [µg/mL]	IC90 [1, 4] [µg/mL]	IC90 [1, 11] [µg/mL]	MIC (C. parapsilosis; [12]) [µg/mL]	MIC (C. parapsilosis; [13]) [µg/mL]	IC90 (Diplodia maydis (Dm); [14]) [µg/mL]	IC90 (Diplodia maydis (Dm); [15]) [µg/mL]	MIC (C. krusei; [16]) [µg/mL]	MIC (C. krusei; [17]) [µg/mL]	IC90 [2, 18] [µg/mL]	IC90 [2, 19] [µg/mL]	IC90 (Rhizoctonia solani (Rs); [20]) [µg/mL]	IC90 (Rhizoctonia solani (Rs); [21]) [µg/mL]	IC90 [3, 22] [µg/mL]	IC90 [3, 23] [µg/mL]	further results
COc1ccc(F)cc1[C@H](Cn1c(=O)n(C(C)(C)C(=O)N2CCCCC2)c(=O)c2c(C)c(-n3nccn3)sc21)OCC(C)C [Compound I-11, (R)-1-(2-(5-fluoro-2-methoxyphenyl)-2-isobutoxyethyl)-5-methyl-3-(2-methyl-1-oxo-1-(piperidin-1-yl)propan-2-yl)-6-(2H-1,2,3-triazol-2-yl)thieno[2,3-d]pyrimidine-2,4(1H,3H)-dione]	–	–	–	–	–	–	–	–	–	–	–	–	–	–	–	–	–	–	–	–	IC90 (Botrtyis cinerea (Bc); read-out: Concentration at 90% Inhibition Bc, Botrtyis cinerea, growth inhibition at 48 hours vs 2% DMSO control): 0.4 µg/mL (≈ 0.638 µM); IC90 (Botrtyis cinerea (Bc); read-out: Concentration at 90% Inhibition Bc, Botrtyis cinerea, growth inhibition vs 2% DMSO control at 48 hours): 0.4 µg/mL (≈ 0.638 µM); MIC (C. albicans; read-out: MIC, C. albicans ATCC 90028, Table 3a, 3 replicates, MIC recorded at 48 h): 1.1 to 2 µg/mL (≈ 1.76 to 3.19 µM); MIC (C. albicans; read-out: MIC, C. albicans ATCC 90028, Table 3b (additional results), 3 replicates, MIC recorded at 48 h): 0.25 to 1 µg/mL (≈ 0.399 to 1.6 µM); IC90 (Septoria tritici (St); read-out: Concentration at 90% Inhibition St, Septoria tritici, growth inhibition at 48 hours vs 2% DMSO control): 10 µg/mL (≈ 16 µM); IC90 (Septoria tritici (St); read-out: Concentration at 90% Inhibition St, Septoria tritici, growth inhibition vs 2% DMSO control at 48 hours): > 50 µg/mL; Concentration at 90% Inhibition Fm [1, 4]: AA (compound concentration of 0.08 ppm at 90% inhibition of fungal pathogens); IC90 [1]: 0.08 µg/mL (≈ 0.128 µM); MIC (C. parapsilosis; read-out: MIC, C. parapsilosis ATCC 22019, Table 3a, 3 replicates, MIC recorded at 48 h): 1.1 to 2 µg/mL (≈ 1.76 to 3.19 µM); MIC (C. parapsilosis; read-out: MIC, C. parapsilosis ATCC 22019, Table 3b (additional results), 3 replicates, MIC recorded at 48 h): 1.01 to 2 µg/mL (≈ 1.61 to 3.19 µM); IC90 (Diplodia maydis (Dm); read-out: Concentration at 90% Inhibition Dm, Diplodia maydis, growth inhibition at 48 hours vs 2% DMSO control): 0.4 µg/mL (≈ 0.638 µM); IC90 (Diplodia maydis (Dm); read-out: Concentration at 90% Inhibition Dm, Diplodia maydis, growth inhibition vs 2% DMSO control at 48 hours): 0.4 µg/mL (≈ 0.638 µM); MIC (C. krusei; read-out: MIC, C. krusei ATCC 6258, Table 3a, 3 replicates, MIC recorded at 48 h): 1.1 to 2 µg/mL (≈ 1.76 to 3.19 µM); MIC (C. krusei; read-out: MIC, C. krusei ATCC 6258, Table 3b (additional results), 3 replicates, MIC recorded at 48 h): 0.25 to 1 µg/mL (≈ 0.399 to 1.6 µM); IC90 ([2]; read-out: Concentration at 90% Inhibition Fv, Fusarium virguliforme, growth inhibition at 48 hours vs 2% DMSO control): 2 µg/mL (≈ 3.19 µM); IC90 ([2]; read-out: Concentration at 90% Inhibition Fv, Fusarium virguliforme, growth inhibition vs 2% DMSO control at 48 hours): 2 µg/mL (≈ 3.19 µM); IC90 (Rhizoctonia solani (Rs); read-out: Concentration at 90% Inhibition Rs, Rhizoctonia solani, mycelial plugs, growth inhibition at 48 hours vs 2% DMSO control): 0.4 µg/mL (≈ 0.638 µM); IC90 (Rhizoctonia solani (Rs); read-out: Concentration at 90% Inhibition Rs, Rhizoctonia solani, mycelial plugs, growth inhibition vs 2% DMSO control at 48 hours): 0.4 µg/mL (≈ 0.638 µM); IC90 ([3]; read-out: Concentration at 90% Inhibition Cg, Collectotrichum graminicola, growth inhibition at 48 hours vs 2% DMSO control): 0.4 µg/mL (≈ 0.638 µM); IC90 ([3]; read-out: Concentration at 90% Inhibition Cg, Collectotrichum graminicola, growth inhibition vs 2% DMSO control at 48 hours): 0.4 µg/mL (≈ 0.638 µM)
COc1ccc(F)cc1[C@H](Cn1c(=O)n(C(C)(C)C(=O)N2CCCC2)c(=O)c2c(C)c(-n3nccn3)sc21)OCC(C)C [Compound I-12, (R)-1-(2-(5-fluoro-2-methoxyphenyl)-2-isobutoxyethyl)-5-methyl-3-(2-methyl-1-oxo-1-(pyrrolidin-1-yl)propan-2-yl)-6-(2H-1,2,3-triazol-2-yl)thieno[2,3-d]pyrimidine-2,4(1H,3H)-dione]	0.4 (≈ 0.653 µM)	0.4 (≈ 0.653 µM)	1.1 to 2 (≈ 1.8 to 3.26 µM)	0.25 to 1 (≈ 0.408 to 1.63 µM)	2 (≈ 3.26 µM)	10 (≈ 16.3 µM)	0.08 (≈ 0.131 µM)	0.08 (≈ 0.131 µM)	2.1 to 4 (≈ 3.43 to 6.53 µM)	1.01 to 2 (≈ 1.65 to 3.26 µM)	0.08 (≈ 0.131 µM)	0.08 (≈ 0.131 µM)	0.25 to 1 (≈ 0.408 to 1.63 µM)	0.25 to 1 (≈ 0.408 to 1.63 µM)	0.4 (≈ 0.653 µM)	0.4 (≈ 0.653 µM)	0.08 (≈ 0.131 µM)	0.08 (≈ 0.131 µM)	0.08 (≈ 0.131 µM)	0.08 (≈ 0.131 µM)	–
COc1ccccc1[C@H](Cn1c(=O)n(C(C)(C)C(N)=O)c(=O)c2c(C)c(-n3nccn3)sc21)OC1CCOCC1 [Compound I-14, (R)-2-(1-(2-(2-methoxyphenyl)-2-((tetrahydro-2H-pyran-4-yl)oxy)ethyl)-5-methyl-2,4-dioxo-6-(2H-1,2,3-triazol-2-yl)-1,4-dihydrothieno[2,3-d]pyrimidin-3(2H)-yl)-2-methylpropanamide]	2 (≈ 3.52 µM)	2 (≈ 3.52 µM)	0.25 to 1 (≈ 0.44 to 1.76 µM)	0.25 to 1 (≈ 0.44 to 1.76 µM)	> 50	> 50	0.08 (≈ 0.141 µM)	0.08 (≈ 0.141 µM)	1.1 to 2 (≈ 1.93 to 3.52 µM)	2.01 to 4 (≈ 3.53 to 7.03 µM)	10 (≈ 17.6 µM)	> 50	0.25 to 1 (≈ 0.44 to 1.76 µM)	1.01 to 2 (≈ 1.78 to 3.52 µM)	10 (≈ 17.6 µM)	> 50	10 (≈ 17.6 µM)	> 50	10 (≈ 17.6 µM)	> 50	–
CCNC(=O)C(C)(C)n1c(=O)c2c(C)c(-n3nccn3)sc2n(C[C@H](OC2CCOCC2)c2ccccc2OC)c1=O [Compound I-15, (R)—N-ethyl-2-(1-(2-(2-methoxyphenyl)-2-((tetrahydro-2H-pyran-4-yl)oxy)ethyl)-5-methyl-2,4-dioxo-6-(2H-1,2,3-triazol-2-yl)-1,4-dihydro-thieno[2,3-d]pyrimidin-3(2H)-yl)-2-methylpropanamide]	0.4 (≈ 0.67 µM)	0.4 (≈ 0.67 µM)	0.25 to 1 (≈ 0.419 to 1.68 µM)	0.25 to 1 (≈ 0.419 to 1.68 µM)	> 50	> 50	0.08 (≈ 0.134 µM)	0.08 (≈ 0.134 µM)	0.25 to 1 (≈ 0.419 to 1.68 µM)	0.25 to 1 (≈ 0.419 to 1.68 µM)	10 (≈ 16.8 µM)	> 50	0.25 to 1 (≈ 0.419 to 1.68 µM)	0.25 to 1 (≈ 0.419 to 1.68 µM)	10 (≈ 16.8 µM)	> 50	10 (≈ 16.8 µM)	> 50	2 (≈ 3.35 µM)	10 (≈ 16.8 µM)	–
